Results published in US12239655B2, “Combined modalities for nucleosides and/or NADPH oxidase (NOX) inhibitors as myeloid-specific antiviral agents” (Emory University, priority 2017, dated 2025).

Legend:
[1] = system: HIV; experiment: HIV assay in macrophages; assay type: cell-based; details: for Antiviral Potency Macrophages - EC50/90: EC50 / Antiviral Potency Macrophages - EC50/90: EC90: Table 5A; for EC50 / EC90: Human immunodeficiency virus 1, Macrophage, Table 5 (Example 8)
Method: (§1) PBM cells or macrophages were incubated with various concentrations of antiviral agents for 6 days PBM cells) or […] (macrophages), followed by harvest of supernatants and quantification of extracellular HIV using the RT assay or p24 assays as previously described (Gavegnano and Schinazi et al, 2012, AAC). AZT (positive control), no drug controls, or virus alone were also performed in each assay. Assays were performed in 8 independent experiments. The Chou and Tallalay method was used to calculate the effective inhibitory concentration 50/90 as previously described (Gavegnano and Schinazi et al, 2012, AAC).

[2] = system: HIV; experiment: HIV assay in PBM cells; assay type: cell-based
Method: as §1

[3] = Cellular toxicity assay in PBM cells; assay type: cell-based; details: human
Method: (§2) The toxicity of the compounds was assessed in Vero, human PBM, CEM (human lymphoblastoid), MT-2, and HepG2 cells, as described previously (see Schinazi R. F., Sommadossi J.-P., Saalmann V., Cannon D. L., Xie M.-Y., Hart G. C., Smith G. A. & Hahn E. F. Antimicrob. Agents Chemother. 1990, 34, 1061-67). Cycloheximide was included as positive cytotoxic control, and untreated cells exposed to solvent were included as negative controls. The cytotoxicity IC50 was obtained from the concentration-response curve using the median effective method described previously (see Chou T.-C. & Talalay P. Adv. Enzyme Regul. 1984, 22, 27-55; Belen'kii M. S. & Schinazi R. F. Antiviral Res. 1994, 25, 1-11).

[4] = Bone marrow cytotoxicity, GM lineage (CFU-GM); assay type: cell-based, human; details: human, Table 8A, first value of the cell, read-out: Cytotoxicity: MTT IC50, Bone Marrow (GM Lineage)
Method: (§3) Primary human bone marrow mononuclear cells can be obtained commercially from Cambrex Bioscience (Walkersville, MD). CFU-GM assays is carried out using a bilayer soft agar in the presence of 50 units/mL human recombinant granulocyte/macrophage colony-stimulating factor, while BFU-E assays used a […] matrix containing 1 unit/mL erythropoietin (see Sommadossi J P, Carlisle R. Toxicity of 3′-azido-3′-deoxythymidine and 9-(1,3-dihydroxy-2-propoxymethyl) guanine for normal human hepatopoietic progenitor cells in vitro. Antimicrob. Agents Chemother. 1987; 31: 452-454; Sommadossi, JP, Schinazi, RF, Chu, C K, and Xie, M Y. Comparison of cytotoxicity of the (−) and (+) enantiomer of 2′,3′-dideoxy-3′-thiacytidine in normal human bone marrow progenitor cells. Biochem. Pharmacol. 1992; 44:1921-1925). Each experiment can be performed in duplicate in cells from three different donors. AZT is used as a positive control. […] The 50% inhibitory concentration (IC50) can be obtained by least-squares linear regression analysis of the logarithm of drug concentration versus BFU-E survival fractions. Statistical analysis can be performed with Student's t test for independent non-paired samples.

[5] = Cellular toxicity assay in CEM cells; assay type: cell-based; details: human
Method: as §2

[6] = Bone marrow cytotoxicity, erythroid lineage (BFU-E); assay type: cell-based, human; details: human; Table 8A; first value of the cell; read-out: Cytotoxicity: MTT IC50, Bone Marrow (Erythroid Lineage)
Method: as §3

[7] = Cellular toxicity assay in Vero cells; assay type: cell-based; details: African green monkey
Method: as §2

[8] = Cellular toxicity assay in macrophages; assay type: cell-based, human; details: human
[9] = Cellular toxicity assay in Huh7 cells; assay type: cell-based; details: human
[10] = system: Bone Marrow (GM Lineage); experiment: Bone marrow cytotoxicity, GM lineage (CFU-GM); assay type: cell-based, human; details: Table 8A; slash not defined, head says IC50
Method: as §3

[11] = system: Bone Marrow (Erythroid Lineage); experiment: Bone marrow cytotoxicity, erythroid lineage (BFU-E); assay type: cell-based, human; details: Table 8A; slash not defined, head says IC50
Method: as §3

[12] = system: Macrophages; experiment: Cellular toxicity assay in macrophages; assay type: cell-based, human; details: Table 8A; slash not defined, head says IC50
[13] = Table 5A, HIV in PBM cells, read-out: Antiviral Potency PBM Cells - EC50/90: EC50
[14] = Human immunodeficiency virus 1, PBMC, 144 h, Table 5 (Example 8), HIV in PBM cells, 6 days, read-out: PBM Cells EC50
[15] = Table 8A, MTT, read-out: Cytotoxicity: MTT IC50, PBM
[16] = Table 8A, MTT, read-out: Cytotoxicity: MTT IC50, CEM
[17] = Table 8A, MTT, read-out: Cytotoxicity: MTT IC50, Vero
[18] = Table 8A, first value of the cell, read-out: Cytotoxicity: MTT IC50, Macrophages
[19] = Table 8A, MTT, read-out: Cytotoxicity: MTT IC50, Huh7
[20] = PBM cells, Table 8, read-out: Cytotoxicity IC50, PBM
[21] = CEM lymphoblastoid cells, Table 8, read-out: Cytotoxicity IC50, CEM
[22] = Vero cells, Table 8, read-out: Cytotoxicity IC50, Vero
[23] = macrophages, Table 8, read-out: Cytotoxicity IC50, Macrophages
[24] = PBM cells, Table 8A, MTT, read-out: Cytotoxicity: MTT IC50, PBM
[25] = primary bone marrow mononuclear cells, GM lineage (CFU-GM)
[26] = CEM lymphoblastoid cells, Table 8A, MTT, read-out: Cytotoxicity: MTT IC50, CEM
[27] = Vero cells, Table 8A, MTT, read-out: Cytotoxicity: MTT IC50, Vero
[28] = macrophages, Table 8A, first value of the cell, read-out: Cytotoxicity: MTT IC50, Macrophages
[29] = Huh7 cells, Table 8A, MTT, read-out: Cytotoxicity: MTT IC50, Huh7
[30] = Human immunodeficiency virus 1, PBMC, Table 5A, HIV in PBM cells, read-out: Antiviral Potency PBM Cells - EC50/90: EC50

Structure (SMILES): C#C[C@]1(CO)O[C@@H](n2cnc3c(N)nc(F)nc32)C[C@@H]1O [drawing 78]
- Antiviral Potency Macrophages - EC50/90: EC50 [1]: 3e-05 nM
- Antiviral Potency Macrophages - EC50/90: EC90 [1]: 7e-06 nM
- Antiviral Potency PBM Cells - EC50/90: EC90 ([2]; Table 5A, HIV in PBM cells): 0.0000001 µM
- EC50 [2, 13]: 0.000000001 µM

Structure (SMILES): O=c1c2cc(F)ccc2sn1-c1ccc2c(c1)OCO2 [drawing 81]
- Antiviral Potency Macrophages - EC50/90: EC50 [1]: 9 nM
- Antiviral Potency Macrophages - EC50/90: EC90 [1]: 300 nM
- Antiviral Potency PBM Cells - EC50/90: EC90 ([2]; Table 5A, HIV in PBM cells): 12.9 µM
- EC50 [2, 13]: 0.7 µM

Structure (SMILES): COc1ccc(NC(=O)Nc2ccc(N)cc2)cc1 [drawing 75]
- EC50 [1]: 0.001 µM
- EC90 [1]: 100 nM
- EC50 [2, 14]: > 100 µM

Structure (SMILES): C#C[C@]1(COP(=O)(N[C@@H](C)C(=O)OC(C)C)Oc2ccccc2)O[C@@H](n2ccc(=O)[nH]c2=O)[C@H](O)[C@@H]1O (some centres unmarked) [drawing 66]
- IC50 [3, 15]: > 100 µM
- IC50 [4]: > 100 µM
- IC50 [5, 16]: > 100 µM
- IC50 [6]: > 100 µM
- IC50 [7, 17]: > 100 µM
- IC50 [8, 18]: > 100 µM
- IC50 [9, 19]: > 100 µM

Structure (SMILES): C#C[C@]1(COP(=O)(N[C@@H](C)C(=O)OC(C)C)Oc2ccccc2)O[C@@H](n2ccc(=O)[nH]c2=O)[C@H](O)[C@@H]1O (some centres unmarked) [drawing 77]
- Antiviral Potency Macrophages - EC50/90: EC50 [1]: 0.1 ± 6 nM
- Antiviral Potency Macrophages - EC50/90: EC90 [1]: 9 ± 7 nM
- EC50 ([2]; Human immunodeficiency virus 1, PBMC, read-out: Antiviral Potency PBM Cells - EC50/90: EC50): > 10 µM

Structure (SMILES): CC(=O)c1ccc2c(c1)Nc1ccccc1S2 [drawing 74]
- EC50 [1]: 0.02 µM
- EC90 [1]: 200 nM
- EC50 [2, 14]: > 100 µM

Structure (SMILES): C#C[C@]1(CO)O[C@@H](n2cnc3c(N)nc(F)nc32)C[C@@H]1O [drawing 60]
- IC50 [3, 20]: 1.1 µM
- IC50 [5, 21]: 6.8 µM
- IC50 [7, 22]: ≥ 100 µM
- IC50 [8, 23]: 2.4 µM

Structure (SMILES): C#C[C@]1(CO)O[C@@H](n2cnc3c(N)nc(F)nc32)C[C@@H]1O [drawing 67]
- IC50 [3, 24]: 2.9 µM
- Bone Marrow (GM Lineage), second value after the slash [10]: 22.4 µM
- IC50 [4, 25]: 1.9 µM
- IC50 [5, 26]: 1.7 µM
- Bone Marrow (Erythroid Lineage), second value after the slash [11]: 8.6 µM
- IC50 [6]: 2.4 µM
- IC50 [7, 27]: 3.2 µM
- Macrophages, second value after the slash [12]: 9.2 µM
- IC50 [8, 28]: 21 µM

Structure (SMILES): C#C[C@]1(CO)O[C@@H](n2cnc3c(N)nc(F)nc32)CC1O (some centres unmarked)
- EC90 [1]: 0.01 nM

Structure (SMILES): COc1ccc(NC(=O)Nc2ccc(N)cc2)cc1 [drawing 64]
- IC50 [3, 20]: > 100 µM
- IC50 [8, 23]: > 10 µM

Structure (SMILES): C#C[C@]1(CO)O[C@@H](n2ccc(=O)[nH]c2=O)[C@H](O)[C@@H]1O [drawing 65]
- IC50 [3, 24]: > 100 µM
- IC50 [4, 25]: > 100 µM
- IC50 [5, 26]: > 100 µM
- IC50 [6]: > 100 µM
- IC50 [7, 27]: > 100 µM
- IC50 [8, 28]: > 100 µM
- IC50 [9, 29]: > 100 µM

Structure (SMILES): CN(C)c1cccc(-c2c3c(=O)n(-c4ccccc4Cl)[nH]c3cc(=O)n2C)c1 [drawing 73]
- EC50 [1]: 0.03 µM
- EC90 [1]: 300 nM
- EC50 [2, 14]: > 100 µM

Structure (SMILES): CN(C)c1cccc(-c2c3c(=O)n(-c4ccccc4Cl)[nH]c3cc(=O)n2C)c1 [drawing 62]
- IC50 [3, 20]: > 100 µM
- IC50 [8, 23]: > 10 µM

Structure (SMILES): O=c1c2cc(F)ccc2sn1-c1ccc2c(c1)OCO2 [drawing 70]
- IC50 ([3]; PBM cells, Table 8B, MTS (head line), read-out: Cytotoxicity: IC50, PBM): 58.3 ± 10.9 µM
- IC50 ([5]; CEM lymphoblastoid cells, Table 8B, MTT (head line), read-out: Cytotoxicity: IC50, CEM): 3.7 µM
- IC50 ([7]; Vero cells, Table 8B, MTT (head line), read-out: Cytotoxicity: IC50, Vero): 20.1 µM
- IC50 ([9]; Huh7 cells, Table 8B, MTT/MTS (head line), read-out: Cytotoxicity: IC50, Huh7): 379 ± 19.2 µM

Structure (SMILES): C#C[C@]1(CO)O[C@@H](n2cnc3c(N)nc(F)nc32)[C@H](O)[C@@H]1O [drawing 61]
- IC50 [3, 20]: 3.2 µM
- IC50 [5, 21]: 52 µM
- IC50 [7, 22]: > 100 µM
- IC50 [8, 23]: 0.7 µM

Structure (SMILES): C#C[C@]1(CO)O[C@@H](n2ccc(=O)[nH]c2=O)[C@H](O)[C@@H]1O [drawing 76]
- Antiviral Potency Macrophages - EC50/90: EC50 [1]: 16600 ± 3200 nM
- Antiviral Potency Macrophages - EC50/90: EC90 [1]: > 100000 nM
- EC50 [2, 30]: > 10 µM

Structure (SMILES): CC(=O)c1ccc2c(c1)Nc1ccccc1S2 [drawing 63]
- IC50 [3, 20]: > 100 µM
- IC50 [8, 23]: > 10 µM

Structure (SMILES): C[C@@H]1C[C@@H]([C@H](O)CC2CC(=O)NC(=O)C2)C(=O)[C@@H](C)C1
- IC50 [3, 15]: 2.5 µM
- IC50 [5, 16]: 0.06 µM
- IC50 [7, 17]: 0.7 µM
- IC50 [8, 18]: 6.9 ± 0.9 µM
- IC50 [9, 19]: 0.9 µM

Structure (SMILES): C#C[C@]1(CO)O[C@@H](n2cnc3c(N)nc(F)nc32)[C@H](O)[C@@H]1O [drawing 68]
- IC50 [3, 24]: 2.2 µM
- Bone Marrow (GM Lineage), second value after the slash [10]: 12.7 µM
- IC50 [4, 25]: 0.4 µM
- IC50 [5, 26]: 1.9 µM
- Bone Marrow (Erythroid Lineage), second value after the slash [11]: 5.4 µM
- IC50 [6]: 0.7 µM
- IC50 [7, 27]: 12.9 µM
- IC50 [8, 28]: 3.2 ± 0.3 µM
- IC50 [9, 29]: 11.4 µM

Structure (SMILES): C#C[C@]1(CO)O[C@@H](n2cnc3c(N)nc(F)nc32)[C@H](O)[C@@H]1O [drawing 79]
- Antiviral Potency Macrophages - EC50/90: EC50 [1]: 1 ± 2 nM
- Antiviral Potency Macrophages - EC50/90: EC90 [1]: 20 ± 10 nM
- EC50 [2, 30]: 1.8 µM

Structure (SMILES): C#C[C@]1(CO)O[C@@H](n2cnc3c(N)nc(F)nc32)C(O)C1O (some centres unmarked)
- EC50 [1]: 0.001 µM
- EC90 [1]: 20 nM
- EC90 ([2]; Human immunodeficiency virus 1, PBMC, 144 h, Table 5 (Example 8), HIV in PBM cells, 6 days): 19.1 µM
- EC50 [2, 14]: 3.2 µM
